Laboratory results reported in patent US20240158446A1, “CYCLIC COMPOUND HAVING SELECTIVE INHIBITORY ACTION ON KRAS OVER HRAS AND NRAS” (CHUGAI SEIYAKU KABUSHIKI KAISHA, priority 2021, published 2024).
*1 amine or outer side, *2 acyl side, *3 side chain or, on linkers, in order; H or OH if unused. Where a SMILES comes first, the peptide text is derived from it. Bridges are numbered along the chain shown (N, C = ends). [ ]: non-standard residue; d: D form. The star is where a group is joined. hPhe(3-Cl-4-CF3) = N[C@@H](CCc1ccc(C(F)(F)F)c(Cl)c1)C(=O)O; NPrPhe(4-CF3) = CCCN[C@@H](Cc1ccc(C(F)(F)F)cc1)C(=O)O; X18 = Cc1ccc(C[C@@H](C(=O)[*:2])N(CC(C)C)[*:1])cc1; X21 = Cc1ccc(C[C@@H](C(=O)[*:2])N(CC2CC2)[*:1])cc1; NPrPhe(4-Me) = CCCN[C@@H](Cc1ccc(C)cc1)C(=O)O; NEtPhe(4-Me) = CCN[C@@H](Cc1ccc(C)cc1)C(=O)O; NMePhe(4-Me) = CN[C@@H](Cc1ccc(C)cc1)C(=O)O; NMeGly(cPent) = CN[C@H](C(=O)O)C1CCCC1; Hyp = O=C(O)[C@@H]1C[C@@H](O)CN1; NMeF = CN[C@@H](Cc1ccccc1)C(=O)O; NMeI = CC[C@H](C)[C@H](NC)C(=O)O; NMeD = CN[C@@H](CC(=O)O)C(=O)O; NMeL = CN[C@@H](CC(C)C)C(=O)O; Morpholide = C1CN(*)CCO1; NMeA = CN[C@@H](C)C(=O)O; NMeAib = CNC(C)(C)C(=O)O; Nle = CCCC[C@H](N)C(=O)O; Piperidide = C1CCN(*)CC1; Ac5c = NC1(C(=O)O)CCCC1; Aze = O=C(O)[C@@H]1CCN1; NEtG = CCNCC(=O)O; Sar = CNCC(=O)O

What was measured:
[1] = target: GDP-bound KRAS wild-type protein (Homo sapiens, UniProt P01116); assay: Binding to KRAS by surface plasmon resonance (SPR), Single Cycle Kinetics; settings: SPR Single Cycle Kinetics, GDP-bound KRAS wild-type protein, 1:1 binding model; read-out: KRAS KD
[2] = target: GDP-bound NRAS wild-type protein (Homo sapiens, UniProt P01111); assay: Binding to NRAS by surface plasmon resonance (SPR), Single Cycle Kinetics; settings: SPR, GDP-bound NRAS wild-type protein vs GDP-bound KRAS wild-type protein
[3] = target: GDP-bound HRAS wild-type protein (Homo sapiens, UniProt P01112); assay: Binding to HRAS by surface plasmon resonance (SPR), Single Cycle Kinetics; settings: SPR, GDP-bound HRAS wild-type protein vs GDP-bound KRAS wild-type protein
Sequence of GDP-bound HRAS wild-type protein (P01112 whole entry): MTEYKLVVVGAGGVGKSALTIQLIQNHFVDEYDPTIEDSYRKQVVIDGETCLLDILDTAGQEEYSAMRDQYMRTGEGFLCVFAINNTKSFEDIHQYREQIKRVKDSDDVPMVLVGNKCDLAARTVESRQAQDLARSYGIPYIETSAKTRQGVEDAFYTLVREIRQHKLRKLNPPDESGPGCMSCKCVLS

Sequence of GDP-bound NRAS wild-type protein (P01111 whole entry): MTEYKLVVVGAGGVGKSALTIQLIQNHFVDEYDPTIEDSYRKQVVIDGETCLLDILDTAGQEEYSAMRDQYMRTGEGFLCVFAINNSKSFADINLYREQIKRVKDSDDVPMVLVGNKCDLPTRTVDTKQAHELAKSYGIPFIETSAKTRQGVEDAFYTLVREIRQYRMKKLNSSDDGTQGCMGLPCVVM
Sequence of GDP-bound KRAS wild-type protein (P01116 whole entry): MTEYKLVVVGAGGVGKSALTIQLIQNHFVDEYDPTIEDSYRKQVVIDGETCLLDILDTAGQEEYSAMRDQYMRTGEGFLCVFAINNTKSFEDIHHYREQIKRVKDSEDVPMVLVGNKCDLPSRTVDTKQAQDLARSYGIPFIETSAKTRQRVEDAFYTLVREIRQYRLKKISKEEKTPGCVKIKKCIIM

Row | SMILES | Kd [1] [nM] | NRAS/KRAS (ratio of KD value for NRAS to KD value for KRAS) [2] | HRAS/KRAS (ratio of KD value for HRAS to KD value for KRAS) [3]
1 | CC[C@H](C)[C@@H]1NC(=O)[C@H](CC(C)C)N(C)C(=O)C[C@@H](C(=O)N2CCOCC2)N(C)C(=O)[C@H](C2CCCC2)N(C)C(=O)C2(CCCC2)NC(=O)[C@@H]2CCCN2C(=O)[C@H](CCc2ccc(C(F)(F)F)c(Cl)c2)NC(=O)CN(C)C(=O)[C@H](Cc2ccccc2)N(C)C(=O)CN(C)C(=O)CN(C)C1=O [PP0039] ([NMeL]I[Sar][Sar][NMeF][Sar][hPhe(3-Cl-4-CF3)]P[Ac5c][NMeGly(cPent)][NMeD]-Morpholide; lactam N-11) | 0.17 | C (A compound having a KD ratio of 0.1 or more and less than 3 is denoted as C) | C (A compound having a KD ratio of 0.1 or more and less than 3 is denoted as C)
2 | CCO[C@@H]1C[C@H]2C(=O)NC3(CCCC3)C(=O)N(C)[C@@H](C3CCCC3)C(=O)N(C)[C@H](C(=O)N3CCOCC3)CC(=O)N(C)[C@@H](CC(C)C)C(=O)N[C@@H]([C@@H](C)CC)C(=O)N(C)CC(=O)N(C)CC(=O)N(CC)[C@@H](Cc3ccc(C)cc3)C(=O)N(C)CC(=O)N[C@@H](CCc3ccc(C(F)(F)F)c(Cl)c3)C(=O)N2C1 [PP0042] ([NMeL]I[Sar][Sar][NEtPhe(4-Me)][Sar][hPhe(3-Cl-4-CF3)][Hyp](Et)[Ac5c][NMeGly(cPent)][NMeD]-Morpholide; lactam N-11) | 0.12 | C (A compound having a KD ratio of 0.1 or more and less than 3 is denoted as C) | C (A compound having a KD ratio of 0.1 or more and less than 3 is denoted as C)
3 | CC[C@H](C)[C@@H]1NC(=O)[C@H](CC(C)C)N(C)C(=O)C[C@@H](C(=O)N2CCOCC2)N(C)C(=O)[C@H]([C@@H](C)CC)N(C)C(=O)C2(CCCC2)NC(=O)[C@@H]2CCCN2C(=O)[C@H](CCc2ccc(C(F)(F)F)c(Cl)c2)NC(=O)CN(C)C(=O)[C@H](Cc2ccc(C)cc2)N(CC)C(=O)CN(C)C(=O)CN(C)C1=O [PP0043] ([NMeL]I[Sar][Sar][NEtPhe(4-Me)][Sar][hPhe(3-Cl-4-CF3)]P[Ac5c][NMeI][NMeD]-Morpholide; lactam N-11) | 0.87 | C (A compound having a KD ratio of 0.1 or more and less than 3 is denoted as C) | C (A compound having a KD ratio of 0.1 or more and less than 3 is denoted as C)
4 | CC[C@H](C)[C@@H]1NC(=O)[C@H](CC(C)C)N(C)C(=O)C[C@@H](C(=O)N2CCOCC2)N(C)C(=O)[C@H](CC(C)C)N(C)C(=O)C2(CCCC2)NC(=O)[C@@H]2CCCN2C(=O)[C@H](CCc2ccc(C(F)(F)F)c(Cl)c2)NC(=O)CN(C)C(=O)[C@H](Cc2ccc(C)cc2)N(CC)C(=O)CN(C)C(=O)CN(C)C1=O [PP0045] ([NMeL]I[Sar][Sar][NEtPhe(4-Me)][Sar][hPhe(3-Cl-4-CF3)]P[Ac5c][NMeL][NMeD]-Morpholide; lactam N-11) | 2.3 | C (A compound having a KD ratio of 0.1 or more and less than 3 is denoted as C) | C (A compound having a KD ratio of 0.1 or more and less than 3 is denoted as C)
5 | CCCC[C@@H]1NC(=O)[C@H](CCc2ccc(C(F)(F)F)c(Cl)c2)NC(=O)CN(C)C(=O)[C@H](Cc2ccc(C)cc2)N(C)C(=O)[C@@H]2CCN2C(=O)[C@H](C)N(C)C(=O)[C@H]([C@@H](C)CC)NC(=O)[C@H](CC(C)C)N(C)C(=O)C[C@@H](C(=O)N2CCCCC2)N(C)C(=O)[C@H](CC(C)C)NC(=O)C(C)(C)N(C)C1=O [PP0047] ([NMeL]I[NMeA][Aze][NMePhe(4-Me)][Sar][hPhe(3-Cl-4-CF3)][Nle][NMeAib]L[NMeD]-Piperidide; lactam N-11) | 18 | C (A compound having a KD ratio of 0.1 or more and less than 3 is denoted as C) | C (A compound having a KD ratio of 0.1 or more and less than 3 is denoted as C)
6 | CCCC[C@@H]1NC(=O)[C@H](CCc2ccc(C(F)(F)F)c(Cl)c2)NC(=O)CN(C)C(=O)[C@H](Cc2ccc(C)cc2)N(CC)C(=O)[C@@H]2CCN2C(=O)[C@H](C)N(C)C(=O)[C@H]([C@@H](C)CC)NC(=O)[C@H](CC(C)C)N(C)C(=O)C[C@@H](C(=O)N2CCCCC2)N(C)C(=O)[C@H](CC(C)C)NC(=O)C(C)(C)N(C)C1=O [PP0048] ([NMeL]I[NMeA][Aze][NEtPhe(4-Me)][Sar][hPhe(3-Cl-4-CF3)][Nle][NMeAib]L[NMeD]-Piperidide; lactam N-11) | 63 | C (A compound having a KD ratio of 0.1 or more and less than 3 is denoted as C) | C (A compound having a KD ratio of 0.1 or more and less than 3 is denoted as C)
7 | CCCC[C@@H]1NC(=O)[C@H](CCc2ccc(C(F)(F)F)c(Cl)c2)NC(=O)CN(C)C(=O)[C@H](Cc2ccc(C)cc2)N(C)C(=O)CN(C)C(=O)CN(C)C(=O)[C@H]([C@@H](C)CC)NC(=O)[C@H](CC(C)C)N(C)C(=O)C[C@@H](C(=O)N2CCCCC2)N(C)C(=O)[C@H](CC(C)C)NC(=O)C(C)(C)N(C)C1=O [PP0049] ([NMeL]I[Sar][Sar][NMePhe(4-Me)][Sar][hPhe(3-Cl-4-CF3)][Nle][NMeAib]L[NMeD]-Piperidide; lactam N-11) | 6.3 | C (A compound having a KD ratio of 0.1 or more and less than 3 is denoted as C) | C (A compound having a KD ratio of 0.1 or more and less than 3 is denoted as C)
8 | CCCN1C(=O)[C@@H]2CCN2C(=O)[C@H](C)N(C)C(=O)[C@H]([C@@H](C)CC)NC(=O)[C@H](CC(C)C)N(C)C(=O)C[C@@H](C(=O)N2CCOCC2)N(C)C(=O)[C@H](C2CCCC2)N(C)C(=O)C2(CCCC2)NC(=O)[C@@H]2CCCN2C(=O)[C@H](CCc2ccc(C(F)(F)F)c(Cl)c2)NC(=O)CN(C)C(=O)[C@@H]1Cc1ccc(C)cc1 [PP0052] ([NMeL]I[NMeA][Aze][NPrPhe(4-Me)][Sar][hPhe(3-Cl-4-CF3)]P[Ac5c][NMeGly(cPent)][NMeD]-Morpholide; lactam N-11) | 0.12 | C (A compound having a KD ratio of 0.1 or more and less than 3 is denoted as C) | B (a compound having 3 or more and less than 10 is denoted as B)
9 | CCCN1C(=O)[C@@H]2CCN2C(=O)[C@H](C)N(C)C(=O)[C@H]([C@@H](C)CC)NC(=O)[C@H](CC(C)C)N(C)C(=O)C[C@@H](C(=O)N2CCOCC2)N(C)C(=O)[C@H](C2CCCC2)N(C)C(=O)C2(CCCC2)NC(=O)[C@@H]2CCCN2C(=O)[C@H](CCc2ccc(C(F)(F)F)c(Cl)c2)NC(=O)CN(C)C(=O)[C@@H]1Cc1ccc(C(F)(F)F)cc1 [PP0053] ([NMeL]I[NMeA][Aze][NPrPhe(4-CF3)][Sar][hPhe(3-Cl-4-CF3)]P[Ac5c][NMeGly(cPent)][NMeD]-Morpholide; lactam N-11) | 0.12 | C (A compound having a KD ratio of 0.1 or more and less than 3 is denoted as C) | C (A compound having a KD ratio of 0.1 or more and less than 3 is denoted as C)
10 | CC[C@H](C)[C@@H]1NC(=O)[C@H](CC(C)C)N(C)C(=O)C[C@@H](C(=O)N2CCOCC2)N(C)C(=O)[C@H](C2CCCC2)N(C)C(=O)C2(CCCC2)NC(=O)[C@@H]2CCCN2C(=O)[C@H](CCc2ccc(C(F)(F)F)c(Cl)c2)NC(=O)CN(C)C(=O)[C@H](Cc2ccc(C)cc2)N(CC(C)C)C(=O)[C@@H]2CCN2C(=O)[C@H](C)N(C)C1=O [PP0056] ([NMeL]I[NMeA][Aze][X18][Sar][hPhe(3-Cl-4-CF3)]P[Ac5c][NMeGly(cPent)][NMeD]-Morpholide; lactam N-11) | 2.9 | C (A compound having a KD ratio of 0.1 or more and less than 3 is denoted as C) | B (a compound having 3 or more and less than 10 is denoted as B)
11 | CC[C@H](C)[C@@H]1NC(=O)[C@H](CC(C)C)N(C)C(=O)C[C@@H](C(=O)N2CCOCC2)N(C)C(=O)[C@H](C2CCCC2)N(C)C(=O)C2(CCCC2)NC(=O)[C@@H]2CCCN2C(=O)[C@H](CCc2ccc(C(F)(F)F)c(Cl)c2)NC(=O)CN(C)C(=O)[C@H](Cc2ccc(C)cc2)N(CC2CC2)C(=O)[C@@H]2CCN2C(=O)[C@H](C)N(C)C1=O [PP0057] ([NMeL]I[NMeA][Aze][X21][Sar][hPhe(3-Cl-4-CF3)]P[Ac5c][NMeGly(cPent)][NMeD]-Morpholide; lactam N-11) | 0.21 | C (A compound having a KD ratio of 0.1 or more and less than 3 is denoted as C) | B (a compound having 3 or more and less than 10 is denoted as B)
12 | CCCN1C(=O)[C@@H]2CCN2C(=O)[C@H](C)N(C)C(=O)[C@H]([C@@H](C)CC)NC(=O)[C@H](CC(C)C)N(C)C(=O)C[C@@H](C(=O)N2CCOCC2)N(C)C(=O)[C@H](C2CCCC2)N(C)C(=O)C2(CCCC2)NC(=O)[C@@H]2CCCN2C(=O)[C@H](CCc2ccc(C(F)(F)F)c(Cl)c2)NC(=O)CN(CC)C(=O)[C@@H]1Cc1ccc(C)cc1 [PP0058] ([NMeL]I[NMeA][Aze][NPrPhe(4-Me)][NEtG][hPhe(3-Cl-4-CF3)]P[Ac5c][NMeGly(cPent)][NMeD]-Morpholide; lactam N-11) | 2 | C (A compound having a KD ratio of 0.1 or more and less than 3 is denoted as C) | C (A compound having a KD ratio of 0.1 or more and less than 3 is denoted as C)
